Source: paper PMC11058299, “Synthesis, molecular docking evaluation for LOX and COX-2 inhibition and determination of in-vivo analgesic potentials of aurone derivatives” (Heliyon, 2024)
Like-named read-outs stand apart in the source and are kept apart here.

Columns and labels:
[1] = test system: heat induced tail flicking latency; assay: Tail immersion test; assay type: in vivo; details: mice
Procedure: Group I: Control, Group II-XV: WE-1 to WE-7 (sample compounds) at dose of 10 mg/kg and 20 mg/kg and Group XVI: Standard. The control (Group I) was given normal saline. Group II-XV received 10 mg/kg and 20 mg/kg of test sample (WE-1 to WE-7).
(§1) The cut-off time was set at 25 s, and the time taken for the mice to flick their tails out of the water was recorded at 30, 60, 90, and 120-min intervals. An increase in the time of tail immersion was compared to the control group to determine the analgesic effect of the tested drugs. The percentage of inhibition was calculated at the time interval showing the highest effect.

[2] = test system: opioid receptors (tail flicking latency); assay: Assessment of opioid mechanism via tail immersion test with Naloxone; assay type: in vivo; details: mice; for Latency response 30 min: control 3.14 ± 0.31; for Latency response 60 min: control 3.17 ± 0.41; for Latency response 120 min: control 3.20 ± 0.29; for Latency response 90 min: control 3.31 ± 0.44
Procedure: as §1
To verify the involvement of the opioid mechanism, following the approach outlined in the published study. […] These derivatives were assessed for their potential opioid activity within the control, sample compounds and standard groups using the tail immersion test.

COX-2 enzyme = biological target: T1, COX-2 enzyme (Homo sapiens, UniProt P35354); assay: COX-2 inhibitory assay; assay type: biochemical
T1 construct: purchased Sigma Aldrich
T1 sequence (P35354 18-604): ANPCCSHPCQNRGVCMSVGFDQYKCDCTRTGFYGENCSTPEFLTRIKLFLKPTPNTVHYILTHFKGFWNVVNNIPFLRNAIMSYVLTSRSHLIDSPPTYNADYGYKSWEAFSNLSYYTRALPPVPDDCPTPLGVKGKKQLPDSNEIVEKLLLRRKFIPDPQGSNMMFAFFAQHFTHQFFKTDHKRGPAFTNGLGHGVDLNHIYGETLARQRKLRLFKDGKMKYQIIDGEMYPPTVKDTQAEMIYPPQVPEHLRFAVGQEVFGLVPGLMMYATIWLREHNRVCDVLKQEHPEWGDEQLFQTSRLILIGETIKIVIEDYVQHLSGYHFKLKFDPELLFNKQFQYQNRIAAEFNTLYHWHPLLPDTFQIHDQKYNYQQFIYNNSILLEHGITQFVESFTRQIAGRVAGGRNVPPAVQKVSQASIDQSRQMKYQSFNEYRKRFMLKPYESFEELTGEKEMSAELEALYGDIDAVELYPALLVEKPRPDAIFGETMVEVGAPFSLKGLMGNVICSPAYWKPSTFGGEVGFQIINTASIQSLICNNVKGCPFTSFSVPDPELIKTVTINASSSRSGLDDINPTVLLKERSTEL
Procedure: COX-2 inhibition was measured spectrophotometrically at 550 nm after the formation of oxidized form of tetramethlenephenylenediamine (TMPD). This assay was conducted according to previously reported procedure. […] The reaction contained 10 μL COX-2 enzymes (100 μM in diluted in DMSO), 10 μL haem of 2.2 mM diluted in DMSO, tris buffers (pH. 8, 100 μl) and drug samples according to the above stated procedure. The reaction was started by the addition of freshly prepared TMPD and methanolic arachidonic acid (AA). Celecoxib is used as a reference drug in this assay. After 5 min of incubation at 25–28C, the absorbance was measured at 550 nm and inhibition was calculated.

5-LOX = biological target: T2, 5-LOX (Homo sapiens, UniProt P09917); assay: LOX inhibitory assay; assay type: biochemical
T2 sequence (P09917 1-674): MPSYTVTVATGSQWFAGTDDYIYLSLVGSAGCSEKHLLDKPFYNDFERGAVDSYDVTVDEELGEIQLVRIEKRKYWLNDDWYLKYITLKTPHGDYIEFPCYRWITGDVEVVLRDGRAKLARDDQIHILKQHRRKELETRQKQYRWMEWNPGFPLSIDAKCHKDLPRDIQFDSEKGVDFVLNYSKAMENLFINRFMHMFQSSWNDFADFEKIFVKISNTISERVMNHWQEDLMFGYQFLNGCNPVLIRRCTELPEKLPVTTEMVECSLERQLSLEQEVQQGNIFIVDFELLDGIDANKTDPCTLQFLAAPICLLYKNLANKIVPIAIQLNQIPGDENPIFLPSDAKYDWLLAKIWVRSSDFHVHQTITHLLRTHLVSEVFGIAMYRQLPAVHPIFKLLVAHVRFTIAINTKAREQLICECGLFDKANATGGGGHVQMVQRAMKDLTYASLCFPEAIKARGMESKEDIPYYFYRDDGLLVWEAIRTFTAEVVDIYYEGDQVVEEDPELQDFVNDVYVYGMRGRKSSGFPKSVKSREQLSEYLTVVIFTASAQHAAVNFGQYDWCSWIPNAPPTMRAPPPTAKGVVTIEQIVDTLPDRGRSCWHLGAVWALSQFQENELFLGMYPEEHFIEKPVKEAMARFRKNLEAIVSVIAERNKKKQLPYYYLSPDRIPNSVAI
Procedure: The assay was performed according to previously reported procedure. […] Enzyme 5-LOX and DCFDA were incubated for 5 min. After the addition of the test compound, it was further incubated for 10 min. By the addition of substrate arachadonic acid and ATP, the reaction was initiated.

[3] = test system: formalin induced paw licking; assay: Formalin induced paw licking test; assay type: in vivo; details: late phase, mice
Procedure: The animals were divided into various groups I-XVI consisting of 8 experimental animals for control, sample compounds (WE-1 to WE-7) and standard. Group I: Control, Group II-XV: WE-1 to WE-7 (sample compounds) at dose of 10 mg/kg and 20 mg/kg and Group XVI: Standard. The control (Group I) was given normal saline. Group II-XV received 10 mg/kg and 20 mg/kg of test sample (WE-1 to WE-7). […] The acute peripheral and centrally mediated analgesic activity of aurone derivatives was evaluated using the formalin-induced pain method, as described. Samples compounds (WE-1 to WE-7) and a standard (Indomethacin 10 mg) were orally administered 30 min prior to 20 μl of 1 % formalin injection (prepared in 0.9 % saline) in right hind paw of the mice and immediately placed in a clear box to observe the animal's reaction. Paw licking or biting within 0–5 min indicated Phase 1, while animal reactions observed between 15 and 30 min indicated Phase 2. The number of paw licking or biting events was compared to the control group, and the percentage of inhibition was calculated.

[4] = test system: acetic acid induced writhing; assay: Acetic acid induced writhing test; assay type: in vivo; details: mice
Procedure: The animals were divided into various groups I-XVI consisting of 8 experimental animals for control, sample compounds (WE-1 to WE-7) and standard. Group I: Control, Group II-XV: WE-1 to WE-7 (sample compounds) at dose of 10 mg/kg and 20 mg/kg and Group XVI: Standard. The control (Group I) was given normal saline. Group II-XV received 10 mg/kg and 20 mg/kg of test sample (WE-1 to WE-7). […] The writhing test, following a previously established method, was conducted to assess the analgesic potential of the aurone derivatives. The mice were orally administered samples compounds (WE-1 to WE-7)and standard (Diclofenac sodium 10 mg/kg) 1 h before intraperitoneal administration 10 ml/kg of 1 % acetic acid. Five minutes after the acetic acid administration, the numbers of writhing episodes were counted for 10 min, and the percentage of inhibition was subsequently calculated.

[5] = Table 2, read-out: LOX (IC50 μM)
[6] = as repeated in Table 4, read-out: Human LOX (IC50 μM)

SMILES	Latency response 30 min ([2]; 10 mg/kg + Naloxone 2 mg/kg)	Latency response 60 min ([2]; 10 mg/kg + Naloxone 2 mg/kg)	Latency response 120 min ([2]; 10 mg/kg + Naloxone 2 mg/kg)	Latency response 90 min ([2]; 10 mg/kg + Naloxone 2 mg/kg)	IC50 (COX-2 enzyme; Table 2)	IC50 (COX-2 enzyme; as repeated in Table 4)	IC50 (5-LOX; [5])	IC50 (5-LOX; [6])	percentage inhibition of paw licking, Phase II ([3]; 20 mg/kg oral)	Latency response 30 min ([2]; 20 mg/kg + Naloxone 2 mg/kg)	Latency response 60 min ([2]; 20 mg/kg + Naloxone 2 mg/kg)	Latency response 120 min ([2]; 20 mg/kg + Naloxone 2 mg/kg)	Latency response 90 min ([2]; 20 mg/kg + Naloxone 2 mg/kg)	further results
CN1CC[C@]23c4c5ccc(O)c4O[C@H]2[C@@H](O)C=C[C@H]3[C@H]1C5 [Morphine, reference compound]	–	–	–	–	–	–	–	–	–	–	–	–	–	percentage inhibition of pain, tail immersion ([1]; 2 mg/kg oral): 85.42%
COc1cccc(C2(O)CCCCC2CN(C)C)c1 (stereo not shown) [Tramadol, reference compound]	3.53 ± 0.44	4.60 ± 0.59	3.48 ± 0.44	3.70 ± 0.48	–	–	–	–	–	–	–	–	–	tail flicking latency ([1]; 10 mg/kg, after 90 min, without Naloxone): 17.74 ± 1.33
O=C1C(=Cc2ccccc2)Oc2ccccc21 [WE-1]	–	–	–	–	1.27 µM	1.27 µM	1.45 µM	1.45 µM	–	–	–	–	–	–
O=C1C(=Cc2ccc(Cl)cc2)Oc2ccccc21 [WE-2]	3.61 ± 0.41	4.11 ± 0.40	3.19 ± 0.32	4.03 ± 0.41	0.82 µM	0.82 µM	0.86 µM	0.86 µM	over 60%	3.70 ± 0.39	4.30 ± 0.51	3.80 ± 0.55	4.59 ± 0.60	percent analgesic effect (inhibition of writhing) ([4]; 10 mg/kg oral): 63.44%; percent analgesic effect (inhibition of writhing) ([4]; 20 mg/kg oral): 64.94%
COc1ccc(C=C2Oc3ccccc3C2=O)cc1 [WE-3]	3.66 ± 0.41	4.60 ± 0.49	4.01 ± 0.61	4.71 ± 0.66	0.47 µM	0.47 µM	0.52 µM	0.52 µM	over 60%	3.35 ± 0.49	4.76 ± 0.51	4.15 ± 0.56	5.14 ± 0.61	percentage inhibition of pain, tail immersion ([1]; 20 mg/kg oral, at interval of highest effect): 71.36%
O=C(O)c1ccc(C=C2Oc3ccccc3C2=O)cc1 [WE-5]	–	–	–	–	1.21 µM	1.21 µM	1.12 µM	1.12 µM	–	–	–	–	–	–
O=Cc1ccc(C=C2Oc3ccccc3C2=O)cc1 [WE-6]	–	–	–	–	1.13 µM	1.13 µM	1.17 µM	1.17 µM	–	–	–	–	–	–
O=C1C(=Cc2ccc(F)cc2)Oc2ccccc21 [WE-7]	3.48 ± 0.46	4.11 ± 0.48	3.40 ± 0.60	4.11 ± 0.40	0.63 µM	0.63 µM	0.74 µM	0.74 µM	over 60%	3.50 ± 0.67	4.35 ± 0.61	3.51 ± 0.66	5.01 ± 0.60	percent analgesic effect (inhibition of writhing) ([4]; 20 mg/kg oral): more than 60%
O=C(O)Cc1ccccc1Nc1c(Cl)cccc1Cl [diclofenac sodium, Diclofenac Sodium, reference compound]	–	–	–	–	–	–	–	–	–	–	–	–	–	percent analgesic effect (inhibition of writhing) ([4]; 10 mg/kg oral): 84.90%; number of writhing ([4]; 10 mg/kg oral, mean ± SEM, control 61.22 ± 3.90): 9.24 ± 1.51
COc1ccc2c(c1)c(CC(=O)O)c(C)n2C(=O)c1ccc(Cl)cc1 [indomethacin, Indomethacin, reference compound]	–	–	–	–	–	–	–	–	–	–	–	–	–	percentage inhibition of paw licking, Phase II ([3]; 10 mg/kg oral): 81.85%
